Source: publication PMC6010070, “Antinociceptive potency of a fluorinated cyclopeptide Dmt-c[D-Lys-Phe-p-CF3-Phe-Asp]NH2” (Journal of Enzyme Inhibition and Medicinal Chemistry, 2018)

Key:
[1] = PAMPA, pH 7.4
Experimental: Parallel Artificial Membrane Permeability Assay (PAMPA) was performed using Multiscreen Filter Plate and Multiscreen Transport Receiver Plate (Merck Millipore, Warsaw, Poland). Tested, as well as reference compounds, were dissolved in 0.1 M PBS buffer containing 20% of ethanol, to the final concentration of 200 µM. A 300 µl aliquots of 0.1 M PBS solution (pH = 7.4) was dispensed into the wells of the […]. Then 1% n-dodecane solution of the brain polar lipid extract (Avanti Polar Lipids; Sigma Aldrich, Poznan, Poland) was prepared to investigate the blood–brain barrier (BBB) permeability. Aliquots of the obtained lipid solutions (5 µl) were dispensed on the membranes of wells of the donor plate and left to dry. […] A complete system, consisting of the receiver plate with inserted donor plate, was incubated at room temperature for 4 h, shaking at 40 g, to guarantee good solvent mixing.
The ability of the tested compounds to permeate the artificial membranes was classified according to the literature[33] as:
Artificial membrane permeability was assessed in the PAMPA assay and the permeability coefficient (Pe) was calculated from the following equation: Pe=C×-ln1-×Ca/Cr where C=Vd ×Va /(Vd+Va)×p×t
Membrane retention was analysed using mass balance between a compound left in the donor and acceptor compartments and calculated using the following equation: MB=Ca×Va+(Cd×Vd)/Cinitial×Vd where

[2] = set-up: method as in PMID 19995587; conditions: i.v. ref 35; cited from earlier work

Cn1c(=O)c2[nH]cnc2n(C)c1=O [Theophylline, theophylline, reference compound]
Mean (%) Mass balance ± SD [1]: 98.21 ± 3.65%

Tyr-c[D-Lys-Phe-Phe-Asp]NH2
Ability to reach the brain after i.v. administration [2]: could reach the brain after i.v. administration
